Assay [1] in a line: Cytotoxicity against human U373 cells. The format is functional, cell-based, U-373MG ATCC. As to conditions: U373 MG.
The test system of another assay is HEY. As to the kind of experiment: Cytotoxicity against human HEY cells. The format is functional, cell-based.

Structures are written as SMILES. Converted amounts (≈) assume the structure as drawn.

As for `C/C1=C\[C@H](C)C[C@H](C)OC(=O)[C@H](C)NC(=O)[C@@H](Cc2ccc(O)c(I)c2)N(C)C(=O)[C@H](C)NC(=O)[C@@H](C)C1` [GEODIAMOLIDE A], the IC50 was 16 µg/mL (≈ 24.9 µM) in assay [1] (read-out: IC50) and 43 µg/mL (≈ 67 µM) in the assay with HEY (read-out: IC50).
As to `C=C1C[C@H](C)C(=O)N[C@@H](C)C(=O)N(C)[C@H](Cc2ccc(O)c(I)c2)C(=O)N[C@@H](C)C(=O)O[C@@H](C)C[C@@H](C)C1=O` [GEODIAMOLIDE G], the IC50 in assay [1] was 7.7 µg/mL (≈ 11.7 µM); in the assay on HEY, 8.6 µg/mL (≈ 13.1 µM).

The IC50 is the concentration that gives 50% inhibition.

The values are drawn from ChEMBL document CHEMBL1144089, “New geodiamolides from the sponge Cymbastela sp. collected in Papua New Guinea” (J Nat Prod, 1999).
